Tested on: rat bladder muscle strips (detrusor)
Type: cell-based

Structure (SMILES): CN(C)C(=O)Oc1ccc[n+](C)c1 [pyridostigmine]
- drop in force from baseline after pyridostigmine: 13±6%
- recovery of the force drop: about 50%

From US20200352923A1 (priority 2017, published 2020)
